Measurements taken from PubChem BioAssay AID687006 (The Scripps Research Institute Molecular Screening Center, 2013).
One block for each compound: values may come before it. Activity calls are given as the source filed them.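 How the source made its calls: active means over 50% breakup of the Hsp90 and CDC37 protein complex, measured by pull-down and western blot; inactive means complex breakup under 10%.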

Molecular target: Hsp90 co-chaperone Cdc37 (Homo sapiens) (UniProt Q16543)
Assay: Hsp90/CDC37 chaperone complex stability in cells – cell-based, chemiluminescence western blot, co-immunoprecipitation, mechanism study for selective HSP90 inhibitor project, late-stage follow-up (AID 687006)
Details: MCF7 cells, Hsp90 co-IP CDC37 western blot, 24 h, hits give high values

Chain of Hsp90 co-chaperone Cdc37 (Homo sapiens) (Q16543 whole entry, looked up): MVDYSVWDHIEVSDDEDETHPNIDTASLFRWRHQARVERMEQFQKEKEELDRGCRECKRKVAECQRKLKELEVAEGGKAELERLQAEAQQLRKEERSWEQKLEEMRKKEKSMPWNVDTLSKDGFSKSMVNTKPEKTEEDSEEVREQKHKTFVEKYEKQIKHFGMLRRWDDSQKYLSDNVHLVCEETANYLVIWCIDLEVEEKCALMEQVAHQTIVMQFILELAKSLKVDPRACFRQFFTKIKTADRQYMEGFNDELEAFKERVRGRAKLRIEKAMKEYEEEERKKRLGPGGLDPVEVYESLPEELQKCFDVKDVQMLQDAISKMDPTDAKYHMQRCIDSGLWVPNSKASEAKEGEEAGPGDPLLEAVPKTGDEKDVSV

SMILES: COc1ccc(NC(=O)c2ccc(NC(=O)c3coc(=O)c(Br)c3)cc2)cc1
- complex disruption (high dose (five times the growth IC50) 60.5 µM, low dose (half the growth IC50) 6.1 µM): > 50%

SMILES: CCCCCCCCOc1ccc(NC(=O)c2coc(=O)c(Br)c2)cc1
- complex disruption (high dose (five times the growth IC50) 64.5 µM, low dose (half the growth IC50) 6.5 µM): > 50%

SMILES: CC(=O)c1ccc(NC(=O)c2coc(=O)c(Br)c2)cc1
- complex disruption (high dose (five times the growth IC50) 53.5 µM, low dose (half the growth IC50) 5.4 µM): > 50%

SMILES: CC(NC(=O)c1coc(=O)c(Br)c1)C1C2CCC3CC(C2)CC31 (centres undefined)
- complex disruption (high dose (five times the growth IC50) 9 µM, low dose (half the growth IC50) 0.9 µM): < 10% (inactive)

SMILES: CCCCOc1cccc(NC(=O)c2coc(=O)c(Br)c2)c1
- complex disruption (high dose (five times the growth IC50) 114 µM, low dose (half the growth IC50) 11.4 µM): < 10% (inactive)

SMILES: Cc1cc(NC(=O)c2coc(=O)c(Br)c2)ccc1C(C)C
- complex disruption (high dose (five times the growth IC50) 44.5 µM, low dose (half the growth IC50) 4.5 µM): < 10% (inactive)

Next, values leading:

- complex disruption (high dose (five times the growth IC50) 17 µM, low dose (half the growth IC50) 1.7 µM): < 10% (inactive)
SMILES: O=C(Nc1ccc(F)cc1)c1coc(=O)c(Br)c1

- complex disruption (high dose (five times the growth IC50) 12 µM, low dose (half the growth IC50) 1.2 µM): > 50%
SMILES: COc1ccc(NC(=O)c2coc(=O)c(Br)c2)cc1

- complex disruption (high dose (five times the growth IC50) 136.5 µM, low dose (half the growth IC50) 13.7 µM): < 10% (inactive)
SMILES: Cc1cccc(NC(=O)c2coc(=O)c(Br)c2)n1

- complex disruption (high dose (five times the growth IC50) 10.5 µM, low dose (half the growth IC50) 1.1 µM): < 10% (inactive)
SMILES: O=C(NCCc1ccc(F)cc1)c1coc(=O)c(Br)c1

- complex disruption (high dose (five times the growth IC50) 24 µM, low dose (half the growth IC50) 2.4 µM): < 10% (inactive)
SMILES: O=C(NCc1ccco1)c1coc(=O)c(Br)c1

- complex disruption (high dose (five times the growth IC50) 37.5 µM, low dose (half the growth IC50) 3.8 µM): > 50%
SMILES: CC(C)CNC(=O)c1coc(=O)c(Br)c1

- complex disruption (high dose (five times the growth IC50) 147 µM, low dose (half the growth IC50) 14.7 µM): < 10% (inactive)
SMILES: O=C(Nc1ccccc1I)c1coc(=O)c(Br)c1

- complex disruption (high dose (five times the growth IC50) 17.5 µM, low dose (half the growth IC50) 1.8 µM): < 10% (inactive)
SMILES: O=C(NCc1cccnc1)c1coc(=O)c(Br)c1
